Patent US20240024444A1, “Combined Preparation” (MEDRx Co., Ltd., priority 2020, published 2024)

Assay: In vitro skin permeability test (Franz diffusion cell)
Type: in vitro ADME, rat (Slc: Wistar)
Procedure: In this test, a Franz diffusion cell (effective diffusion area: 1.0 cm^2, PermeGear, Hellertown, US) was used, and the abdominal skin (shaved before the skin is removed) of 5-week-old male rats (Slc: Wistar) was used.
The abdominal skin of rats was cut to about […] (23 mm round) and set in a receptor cell filled with 8.0 mL of the receptor solution (saline of 0.1% bovine serum albumin (BSA) (purchased from FUJIFILM Wako Pure Chemical Corporation)). The receptor solution was kept at 32° C. in a circulator water bath at a constant temperature. After 2, 4, 6, 8 and 24 hours, the receptor solution (0.2 mL) was collected and each of the collected solution was used as samples. After collecting the samples, the same amount of the receptor solution was added into the receptor cell to keep the volume of the receptor solution constant. […] The HPLC condition was as follows: Column: YMC Pack Pro C18 RS 5 μm, 4.6×150 mm; YMC CO., LTD., Mobile Phase: acetonitrile/0.1% trifluoroacetic acid (23/77, v/v) at 35° C., Flow Rate: 1.0 mL/min. The wavelength of the UV detector was set to 215 nm.

accumulative amount of the co-administered R848 for 24 hours (R848 co-administered with WT1 peptide): about 350 μg/cm^2
accumulative amount of the individually-administered R848 for 24 hours (R848 individually administered): about 1500 μg/cm^2
SMILES: CCOCc1nc2c(N)nc3ccccc3c2n1CC(C)(C)O [R848, Resiquimod]
